Measurements from US5981748A, “Synthesis of optically pure compounds useful as GARFT inhibitors and their intermediates” (Agouron Pharmaceuticals, Inc., priority 1998, dated 1999).

Target: catalytic domain of the human GARFT (Homo sapiens, UniProt P22102)
Assay: biochemical
Protocol: Reactions mixtures were prepared containing the catalytic domain of the human GARFT, 0-250 nM test compound, 20 μM glycinamide ribonucleotide (GAR), 10 or 20 μM N^10 -formyl-5,8-dideazafolate (FDDF), 50 mM HEPES-KOH (pH 7.5), and 50 mM KCl. The reaction was initiated with the addition of enzyme to a final concentration of 11 nM, followed by monitoring of the increase in absorbance at 294 nm at 20° C. (ε294 =18.9 mM^-1 cm^-1).
The GARFT inhibition constant (Ki) was determined from the dependence of the steady-state catalytic rate on the inhibitor and substrate concentration. […] The Michaelis constant for FDDF, Km, was determined independently by the dependence of the catalytic rate on the FDDF concentration. Data for both the Km and Ki determinations were fitted by non-linear methods to the Michaelis equation or to the Michaelis equation for competitive inhibition, as appropriate.

Chain of catalytic domain of the human GARFT (P22102 810-1010 limits assumed): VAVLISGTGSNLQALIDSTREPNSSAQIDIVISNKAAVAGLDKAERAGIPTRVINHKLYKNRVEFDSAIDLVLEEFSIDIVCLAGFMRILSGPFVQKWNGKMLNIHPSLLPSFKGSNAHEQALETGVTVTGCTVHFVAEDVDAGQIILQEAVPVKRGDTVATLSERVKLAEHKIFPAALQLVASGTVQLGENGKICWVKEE

Ki: 3 nM
SMILES: Nc1nc2c(c(=O)[nH]1)S[C@H](CCc1ccc(C(=O)N[C@@H](CCC(=O)O)C(=O)O)s1)CN2 [Compound 15, 2-(5-[2-(2-Amino-4-oxo-4,6,7,8-tetrahydro-3H-pyrimido[5,4-b][1,4]thiazin-6(R)-yl)-ethyl]-thiophene)-2-L-glutamic acid]
